Measured values from patent US12433830B2, “Anti-aging compositions and methods of use thereof” (S.I.S. SHULOV INNOVATIVE SCIENCE LTD., priority 2019, dated 2025).
Where a SMILES comes first, the peptide text is derived from it. [ ]: non-standard residue; d: D form. The star is where a group is joined. pGlu = O=C1CC[C@@H](C(=O)O)N1; Octanoyl = CCCCCCCC(=O)*

Columns and labels:
[1] = test system: Mattek's EpiDerm™ X (EPI-606-X) reconstructed human epidermis tissue; assay: Skin metabolism, full scan HRMS search for metabolites in permeation samples; type: in vitro ADME; details: t=4, 8, 20, 22, 24 h vs time zero; positive and negative ESI
Procedure: The skin metabolism of ZEP3 and ZEP3Na was also investigated. Full scan HRMS chromatograms were acquired for the samples, in both positive and negative ESI mode, in order to identify possible metabolites of the target analytes. Differential analysis between the samples through the experiment (t=4, 8, 20, 22, and 24 h) and the sample at time zero was performed. Evaluation of the fragmentation profile through MS/MS experiments was also performed in order to provide additional information.

epidermal cells [2] = assay: Viability of epidermal cells under stress conditions; type: cell-based; details: stress conditions (70 mM NaCl)
epidermal cells [3] = assay: Formation of reactive oxygen species (ROS) in epidermal cells under stress conditions; type: cell-based; details: stress conditions (70 mM NaCl)
[4] = rat, chemical corneal injury; cited from earlier work

Compound	metabolites identified [1]	viability of epidermal cells (epidermal cells [2])	formation of reactive oxygen species (ROS) (epidermal cells [3])	effect on ocular pain [4]
CCCCCCCC(=O)NCCCC[C@H](NC(=O)[C@H](Cc1c[nH]c2ccccc12)NC(=O)[C@H](CC(N)=O)NC(=O)[C@@H]1CCC(=O)N1)C(=O)O [ZEP3, pGlu-Asn-Trp-Lys(Octanoyl)-OH] ([pGlu]NWK(Octanoyl)-OH)	No metabolites	increased viability of epidermal cells	reduced the formation of reactive oxygen species (ROS)	–
pGlu-Asn-Trp-Thr-OH ([pGlu]NWT-OH; SMILES C[C@@H](O)[C@H](NC(=O)[C@H](Cc1c[nH]c2ccccc12)NC(=O)[C@H](CC(N)=O)NC(=O)[C@@H]1CCC(=O)N1)C(=O)O) [ZEP4]	–	increased viability of epidermal cells	reduced the formation of reactive oxygen species (ROS)	analgesic effect
